Experimental data published in patent publication US5296367A (priority 1991, dated 1994).
*1 amine or outer side, *2 acyl side, *3 side chain or, on linkers, in order; H or OH if unused. Where a SMILES comes first, the peptide text is derived from it. CO = O=C([*:1])[*:2]

Biological target: T1, alkaline proteinase K-16 from Bacillus sp. KSM-K16 (Shouchella clausii, UniProt Q99405)
T1 construct: made in house; host or cells: Bacillus sp; KSM-K16 (own producer strain, culture)
T1 sequence (Q99405 112-380): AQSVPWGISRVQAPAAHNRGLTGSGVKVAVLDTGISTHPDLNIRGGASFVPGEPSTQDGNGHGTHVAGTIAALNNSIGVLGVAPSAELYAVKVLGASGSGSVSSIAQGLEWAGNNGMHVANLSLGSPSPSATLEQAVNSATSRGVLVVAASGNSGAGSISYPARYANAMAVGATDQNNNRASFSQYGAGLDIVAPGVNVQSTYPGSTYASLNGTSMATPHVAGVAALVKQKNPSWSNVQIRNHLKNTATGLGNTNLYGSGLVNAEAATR
Type: biochemical
Conditions: for Residual activity (%): pH 7

Molecule | Effect of inhibitor on activity (in words) | Residual activity (%)
O=C(O)CN(CCN(CC(=O)O)CC(=O)O)CC(=O)O [EDTA, Ethylenediaminetetraacetic acid] | not inhibited | 
chymostatin | inhibited | 34%
CC(C)[C@H](NC(=O)[C@H](CCCNC(=N)N)NC(=O)N[C@@H](Cc1ccccc1)C(=O)O)C(=O)N[C@H](C=O)CCCNC(=N)N [Antipain] ({Phe-CO}-Arg-Val-Arg-aldehyde) | not inhibited | 
O=S(=O)(F)Cc1ccccc1 [PMSF, Phenylmethanesulfonyl fluoride] | inhibited | 1.5%
